According to US11415579B2, “Assay for measuring a rate of reaction between a target and a ligand candidate” (Imperial College Innovations Ltd., priority 2016, dated 2022):

Columns and labels:
[1] = Kinetic thiol consumption assay with model thiol glutathione; assay type: physicochemical; parameters: Rate constant with glutathione (k(GSH)): unit not given here; conditions: for Rate constant with glutathione (k(GSH)): 500 μM ligand, 5 μM thiol, phosphate buffer pH 8; for Rate constant with Glutathione: Protein: Glutathione, cysteine position NA, in h-1
In short: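 Rate constants for acrylamide reaction with 5 μM glutathione come from first-order exponential fits of normalized fluorescence decay (ex 380, em 470 nm). Reactions run in degassed phosphate buffer at pH 8 containing TCEP beads, room temperature.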

[2] = molecular target: T1, human cyclin-dependent kinase 2 (Cdk2) (Homo sapiens, UniProt P24941); assay: Kinetic thiol consumption assay with wild type Cdk2 (C177); assay type: binding; parameters: key to Rate enhancement, Cdk2 WT: k(Cdk2) divided by k(model thiol); Rate constant with Cdk2 (k(Cdk2)): unit not given here; conditions: for Rate constant with Cdk2 (k(Cdk2)): 500 μM ligand, 5 μM thiol, phosphate buffer pH 8; for Rate enhancement, Cdk2 WT: no additional mutations; for Rate constant with Cdk2 WT: Protein: Cdk2, cysteine position WT, in h^-1; for k(Cdk2)/k(Cdk2_mut) rate enhancement: model thiol Cdk2[C177A, F80C, K278C]; for k(Cdk2)/k(GSH) rate enhancement: model thiol glutathione
T1 construct: poly-histidine; made in house; host or cells: E. coli
In short: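 Thiol 5 μM (Cdk2 or model thiol), degassed phosphate buffer pH 8, TCEP beads 2% v/v. Plates incubated 1 h RT, ex/em 380/470 nm. First-order decay fit → rate constant; ratio Cdk2/model thiol = rate enhancement.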

[3] = molecular target: T2, Cdk2[C177A, F80C, K278C] (Homo sapiens, UniProt P24941, C177A/F80C/K278C); assay: Kinetic thiol consumption assay with mutant Cdk2 as model thiol; assay type: binding; parameters: unit not given here; conditions: 500 μM ligand, 5 μM thiol, phosphate buffer pH 8
T2 construct: poly-histidine; made in house; host or cells: E. coli
In short: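 First-order rate constants were derived by exponential-decay fitting of DMSO/thiol-normalized fluorescence (380/470 nm) over time at room temperature. Thiol was 5 μM E. coli-expressed His-tagged Cdk2 mutant C177A/F80C/K278C in degassed pH 8 phosphate buffer containing 2% v/v TCEP beads.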

[4] = molecular target: T3, Cdk2(C177A, F80C) (Homo sapiens, UniProt P24941, C177A/F80C); assay: Kinetic thiol consumption assay with Cdk2 mutant F80C, incl. kobs versus concentration (Kd, k2); assay type: binding; parameters: key to Rate enhancement, Cdk2 F80C: Cdk2 rate constant divided by model-thiol rate constant; conditions: additional mutation C177A; for Rate constant with Cdk2 F80C: Protein: Cdk2, cysteine position F80C, in h^-1
T3 construct: poly-histidine; made in house; host or cells: E. coli
In short: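 His-tagged Cdk2(C177A/F80C) from E. coli or model thiol, 5 μM in degassed phosphate buffer pH 8 with TCEP beads, reacted with acrylamide ligands; fluorescence (ex/em 380/470 nm) normalized to DMSO control and fitted to first-order decay for kobs. Kd and k2 obtained from hyperbolic fit of kobs versus ligand concentration.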

[5] = molecular target: T4, Cdk2(H71C) (C177A) (Homo sapiens, UniProt P24941, C177A/H71C); assay: Kinetic thiol consumption assay with Cdk2 mutant H71C; assay type: binding; parameters: key to Rate enhancement, Cdk2 H71C: rate constant with Cdk2 ÷ rate constant with model thiol (fold); conditions: additional mutation C177A; for Rate constant with Cdk2 H71C: Protein: Cdk2, cysteine position H71C, in h^-1
T4 construct: poly-histidine; made in house; host or cells: E. coli
In short: (§1)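 Read-out is fluorescence at 380/470 nm, taken after 1 h at room temperature and normalized to a DMSO/thiol-only control over time. Thiol (5 μM Cdk2 mutant or model thiol) was in degassed pH 8 phosphate buffer with 2% v/v TCEP beads. Acrylamide rate constants for Cdk2 were divided by those with model thiol.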

[6] = molecular target: T5, Cdk2(S276C) (C177A) (Homo sapiens, UniProt P24941, C177A/S276C); assay: Kinetic thiol consumption assay with Cdk2 mutant S276C; assay type: binding; parameters: key to Rate enhancement, Cdk2 S276C: rate constant with Cdk2 ÷ rate constant with model thiol (fold); conditions: additional mutation C177A; for Rate constant with Cdk2 S276C: Protein: Cdk2, cysteine position S276C, in h^-1
T5 construct: poly-histidine; made in house; host or cells: E. coli
In short: as §1

[7] = molecular target: T6, Cdk2(N272C) (C177A) (Homo sapiens, UniProt P24941, C177A/N272C); assay: Kinetic thiol consumption assay with Cdk2 mutant N272C; assay type: binding; parameters: key to Rate enhancement, Cdk2 N272: rate constant with Cdk2 ÷ rate constant with model thiol (fold); conditions: for Rate enhancement, Cdk2 N272: Cdk2 N272, additional mutation C177A; for Rate constant with Cdk2 N272C: Protein: Cdk2, cysteine position N272C, additional mutation C177A, in h^-1
T6 construct: poly-histidine; made in house; host or cells: E. coli
In short: as §1

[8] = molecular target: T7, Cdk2(T182C) (C177A) (Homo sapiens, UniProt P24941, C177A/T182C); assay: Kinetic thiol consumption assay with Cdk2 mutant T182C; assay type: binding; parameters: key to Rate enhancement, Cdk2 T182C: rate constant with Cdk2 ÷ rate constant with model thiol (fold); conditions: additional mutation C177A; for Rate constant with Cdk2 T182C: Protein: Cdk2, cysteine position T182C, in h^-1
T7 construct: poly-histidine; made in house; host or cells: E. coli
In short: as §1

[9] = molecular target: T8, Cdk2(R122C) (C177A) (Homo sapiens, UniProt P24941, C177A/R122C); assay: Kinetic thiol consumption assay with Cdk2 mutant R122C; assay type: binding; parameters: key to Rate enhancement, Cdk2 R122C: rate constant with Cdk2 ÷ rate constant with model thiol (fold); conditions: additional mutation C177A; for Rate constant with Cdk2 R122C: Protein: Cdk2, cysteine position R122C, in h-1
T8 construct: poly-histidine; made in house; host or cells: E. coli
In short: as §1

[10] = molecular target: T9, Cdk2(S181C) (C177A) (Homo sapiens, UniProt P24941, C177A/S181C); assay: Kinetic thiol consumption assay with Cdk2 mutant S181C; assay type: binding; parameters: key to Rate enhancement, Cdk2 S181C: rate constant with Cdk2 ÷ rate constant with model thiol (fold); conditions: additional mutation C177A; for Rate constant with Cdk2 S181C: Protein: Cdk2, cysteine position S181C, in h^-1
T9 construct: poly-histidine; made in house; host or cells: E. coli
In short: as §1

SMILES	Rate constant with glutathione (k(GSH)) [1]	Rate constant with Glutathione [1]	Rate constant with Cdk2 (k(Cdk2)) [2]	Rate enhancement, Cdk2 WT [2]	Rate constant with Cdk2 WT [2]	k(Cdk2)/k(Cdk2_mut) rate enhancement [2]	k(Cdk2)/k(GSH) rate enhancement [2]	Rate constant with Cdk2[C177A, F80C, K278C] (k(Cdk2_mut)) [3]	Rate enhancement, Cdk2 F80C [4]	Rate enhancement, Cdk2 H71C [5]	Rate enhancement, Cdk2 S276C [6]	Rate constant with Cdk2 S276C [6]	Rate enhancement, Cdk2 N272 [7]	Rate constant with Cdk2 N272C [7]	Rate enhancement, Cdk2 T182C [8]	Rate constant with Cdk2 T182C [8]	Rate enhancement, Cdk2 R122C [9]	Rate constant with Cdk2 R122C [9]	Rate enhancement, Cdk2 S181C [10]	Rate constant with Cdk2 S181C [10]	further results
C=CC(=O)NCCc1c(-c2ccccn2)[nH]c2ccccc12 [EL-1083]	0.00618	0.01092	0.00098	0.08945	0.0009768	0.3446	0.1583	0.00284	0	0	0.5044	0.005508	0.157	0.001714	0.9139	0.00998	0.05484	0.0005988	0.1531	0.001672	–
C=CC(=O)NCCc1c(-c2ccccn2)[nH]c2ccc(F)cc12 [EL-1084]	0.00286	0.004273	0.00314	1.173	0.005012	0.5247	1.101	0.00599	1.7587E−11	0	0.4117	0.001759	0.608	0.002598	1.828	0.007812	0.229	0.0009787	0.09078	0.0003879	Rate constant with Cdk2 F80C [4]: 7.515E−14
C=CC(=O)Nc1cccc(-c2cc3ccccc3[nH]2)c1 [EL-1098]	0.01147	0.01151	0.01063	0.9235	0.01063	0.3049	0.9268	0.03487	0.7203	0.2587	1.017	0.0117	0.8491	0.009773	2.526	0.02907	0.5598	0.006443	0.4335	0.00499	Rate constant with Cdk2 F80C [4]: 0.008291; Rate constant with Cdk2 H71C [5]: 0.002978
C=CC(=O)NC(C)c1cc(OC)c(OC)c(OC)c1 (centres unmarked) [EL-1101]	0.0078	0.007427	0.00341	0.4606	0.003421	1.51	0.4373	0.00226	0.3417	0.8384	0.9981	0.007413	0.6801	0.005051	1.305	0.009691	0.3078	0.002286	0.396	0.002941	Rate constant with Cdk2 F80C [4]: 0.002538; Rate constant with Cdk2 H71C [5]: 0.006227
C=CC(=O)Nc1ccc2nc(C)[nH]c2c1 [EL-1109]	0.00862	0.008572	0.00827	0.9701	0.008316	0.8966	0.9595	0.00922	1.94	0.5644	0.9188	0.007876	0.3872	0.003319	5.286	0.04531	0.7255	0.006219	1.588	0.01361	Rate constant with Cdk2 F80C [4]: 0.01663; Rate constant with Cdk2 H71C [5]: 0.004838
